Test results from PubChem BioAssay (NCI).
Where “and” joins values, the source holds several entries; their conditions need not be identical. Identical values can stand only once.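 48-hour exposure; five concentrations; linearly interpolated endpoints. Abbreviation: GI50, concentration required for 50% inhibition of growth. TGI is the concentration that stops growth completely.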

Key:
Test in all cases: DTP human tumour cell line panel, 48 h
LOX IMVI melanoma = system: LOX IMVI melanoma
SF-268 CNS = system: SF-268 CNS
CAKI-1 renal = system: CAKI-1 renal
MOLT-4 leukemia = system: MOLT-4 leukemia
EKVX NSCLC = system: EKVX NSCLC
SW-620 colon = system: SW-620 colon
SK-OV-3 ovarian = system: SK-OV-3 ovarian
HL-60(TB) leukemia = system: HL-60(TB) leukemia
SK-MEL-28 melanoma = system: SK-MEL-28 melanoma
HCC-2998 colon = system: HCC-2998 colon

Row | SMILES | GI50 (LOX IMVI melanoma) | TGI (LOX IMVI melanoma) | GI50 (SF-268 CNS) | TGI (SF-268 CNS) | GI50 (CAKI-1 renal) | TGI (CAKI-1 renal) | GI50 (MOLT-4 leukemia) | TGI (MOLT-4 leukemia) | GI50 (EKVX NSCLC) [µM] | TGI (EKVX NSCLC) [µM] | GI50 (SW-620 colon) | TGI (SW-620 colon) | GI50 (SK-OV-3 ovarian) | TGI (SK-OV-3 ovarian) | TGI (HL-60(TB) leukemia) [µM] | GI50 (HL-60(TB) leukemia) [µM] | GI50 (SK-MEL-28 melanoma) | TGI (SK-MEL-28 melanoma) | GI50 (HCC-2998 colon) | TGI (HCC-2998 colon)
1 | COC(=O)C1=C(O)C(C(=O)OC)[C@@]2(O)[C@@H](C(=O)OC)C(c3ccc(OC(=O)C(Cc4ccccc4)NC(C)=O)cc3)C[C@@H]1[C@@H]2C(=O)OC (stereo partly drawn) | 18 µM | 32.2 µM | 21.9 µM | 88.3 µM | 38.7 µM | > 100 µM | 14.8 µM | 46.4 µM | 95.7 | > 100 | 29.7 µM | > 100 µM | 37.5 µM | > 100 µM | – | – | – | – | – | –
2 | O=C1/C=C(/c2ccc(O)cc2)[C@H](O)Cc2ccc(OC3OC(CO)C(O)C(O)C3O)cc2O1 (stereo partly drawn) (tested in a mixture with another compound) | – | > 100 µM | – | > 100 µM | – | > 100 µM | – | – | – | > 100 | – | > 100 µM | – | > 100 µM | > 100 | – | – | – | – | –
3 | COc1cc(C2CC(c3ccc(C)cc3)=NN2C(C)=O)ccc1Oc1ccnc2cc(Cl)ccc12 (stereo not drawn) | – | – | 38.4 µM | > 100 µM | – | – | > 100 µM | > 100 µM | > 100 | > 100 | > 100 µM | > 100 µM | 32.4 µM | > 100 µM | > 100 | > 100 | > 100 µM | > 100 µM | > 100 µM | > 100 µM
4 | N#CC1(Cc2ccccc2Cl)c2ccccc2C=CN1C(=O)c1ccccc1 (stereo not drawn) | – | > 100 µM | – | > 100 µM | – | – | – | > 100 µM | – | > 100 | – | > 100 µM | – | > 100 µM | > 100 | – | – | > 100 µM | – | > 100 µM
5 | COc1cc(OC)c(Oc2cccc(OC)c2OC)c(OC)c1 | – | > 100 µM | – | > 100 µM | – | > 100 µM | – | > 100 µM | – | > 100 | – | > 100 µM | – | > 100 µM | – | – | – | > 100 µM | – | > 100 µM
6 | CCCCCc1c(C)[nH]c(/C=C2\N=C(c3ccc[nH]3)C=C2Oc2ccc(OC)cc2)c1C | 0.0406 µM and 0.0197 µM | 0.289 µM and 0.0534 µM | 0.154 µM and 0.0526 µM | 1.92 µM and 1.46 µM | 0.136 µM and 0.0363 µM | 0.449 µM and 0.333 µM | 0.107 µM and 0.0481 µM | 1.17 µM and 1.67 µM | – | – | 0.0587 µM and 0.0252 µM | 1.53 µM and 0.518 µM | 0.392 µM and 0.141 µM | 2.25 µM and 1.39 µM | 0.924 | 0.209 | 0.231 µM and 0.0512 µM | 0.904 µM and 0.281 µM | 0.0963 µM and 0.0369 µM | 6.44 µM and 1.91 µM
7 | CC(=O)OCC1OC(n2c(-c3ccc(N)cc3)cc(-c3ccco3)c(C#N)c2=O)C(OC(C)=O)C(OC(C)=O)C1OC(C)=O (stereo not drawn) | – | > 50 µM | – | > 50 µM | – | > 50 µM | – | > 50 µM | – | > 50 | – | > 50 µM | – | > 50 µM | – | – | – | > 50 µM | – | > 50 µM
8 | O=C(Nc1ccc(Cl)cc1Cl)c1c/c(=N\O)c2ccc(O)cc2o1 | – | > 100 µM | – | > 100 µM | – | > 100 µM | – | > 100 µM | – | – | – | > 100 µM | – | > 100 µM | > 100 | – | – | > 100 µM | – | –
9 | C=CC[n+]1c(/C=C2\Sc3ccccc3N2C)sc(-c2ccccc2)c1-c1ccccc1 | 0.34 µM | 1.54 µM | 0.405 µM | 15.6 µM | – | – | 0.431 µM | 4.29 µM | 0.478 | 12.9 | 0.366 µM | 13.3 µM | 0.296 µM | 0.92 µM | 0.665 | 0.241 | 0.421 µM | 7.72 µM | 0.401 µM | 15.7 µM
10 | NNC(=S)N/N=C(\c1nc2ccc(Cl)cc2[nH]c1=O)C(O)c1ccc(Cl)cc1Cl (stereo not drawn) | – | > 100 µM | – | > 100 µM | – | > 100 µM | – | > 100 µM | – | > 100 | – | > 100 µM | – | > 100 µM | > 100 | – | – | > 100 µM | – | –
11 | O=C(c1ccc(Cl)cc1)N(C(=S)N1CCN(c2ccccc2)CC1)C1CCCCC1 | – | > 100 µM | – | > 100 µM | – | > 100 µM | – | > 100 µM | – | – | – | > 100 µM | – | > 100 µM | > 100 | – | – | > 100 µM | – | –
12 | COc1ccc(-c2ccc(/C=N/n3cnn(CN4CCN(C)CC4)c3=S)o2)c([N+](=O)[O-])c1 | 23.3 µM | 66.8 µM | 23.6 µM | 69.5 µM | – | – | 31.2 µM | > 100 µM | 34.8 | > 100 | 31.6 µM | > 100 µM | 36.4 µM | > 100 µM | 49.9 | 17.7 | 44.5 µM | > 100 µM | – | –
13 | Cc1c(Br)cccc1NC(=O)c1sc2nc3c(cc2c1N)CN(Cc1ccccc1)CC3 | 0.336 µM | > 50 µM | 0.525 µM | 27.2 µM | – | – | 0.409 µM | > 50 µM | 0.359 | > 50 | 0.164 µM | 7.15 µM | 0.294 µM | 22.7 µM | 0.456 | 0.161 | 0.977 µM | > 50 µM | 1.6 µM | > 50 µM
14 | O=C(CC1Sc2ccccc2NC1=O)Nc1ccc([N+](=O)[O-])cc1[N+](=O)[O-] (stereo not drawn) | – | 30.1 µM | – | 30.9 µM | – | – | – | 62.6 µM | – | 69.2 | – | 32.4 µM | – | – | 41.9 | – | – | 31.8 µM | – | > 100 µM
15 | Oc1ccc(Br)cc1CN1CCN(Cc2ccc(Cl)cc2)CC1 | 16.3 µM | 36.9 µM | 31.5 µM | > 100 µM | 22.7 µM | > 100 µM | 26.7 µM | > 100 µM | – | – | 22.2 µM | 92.5 µM | 31 µM | > 100 µM | 66.5 | 22.8 | 24 µM | > 100 µM | 30.8 µM | > 100 µM
16 | COc1ccc(-c2cc(-c3ccco3)c(C#N)c(=O)n2C2OC(OC(=O)c3ccccc3)C(OC(=O)c3ccccc3)C2OC(=O)c2ccccc2)cc1 (stereo not drawn) | – | > 100 µM | – | – | – | > 100 µM | – | > 100 µM | – | > 100 | – | > 100 µM | – | – | – | – | – | > 100 µM | – | > 100 µM
17 | Nc1nc(Cl)cc2c1ncn2C1OC(CO)C(O)C1O (stereo not drawn) | > 100 µM | > 100 µM | > 100 µM | > 100 µM | – | – | > 100 µM | > 100 µM | > 100 | > 100 | > 100 µM | > 100 µM | > 100 µM | > 100 µM | > 100 | > 100 | > 100 µM | > 100 µM | – | –
